# Read-outs that look alike come from different tables or passages of the source. Where a SMILES comes first, the peptide text is derived from it.
# How the values were obtained:
# [1] = sweetness characteristics in standard cola beverage, nine panelists; conditions: cola beverage stored at 37° C. for 26 days, 1 extremely poor to 9 extremely excellent, sweetener at 30 to 520 ppm
# Method: The sweetness characteristics were evaluated in the following manner.
# A standard beverage was prepared by adding the following materials to 1600 ml of carbonated water:
# Various sweeteners were added to the standard beverage each at a definite concentration. The beverages thus obtained were stored at 37° C. for 26 days and then evaluated by nine panelists according to the following criterion.
# [2] = degree of sweetness based on sucrose of compounds of differing absolute configuration; conditions: for Degree of sweetness based on sucrose: Table 2
# Method: Compounds of absolute configurations (a) and (b) of (RS,RS) and (S,S) were prepared by way of trial, and the degrees and characteristics of sweetness thereof were evaluated.
# [3] = versus APM; cited from earlier work
# [4] = among dipeptide esters known so far; cited from earlier work
# [5] = stability of aqueous solution (percent remaining by HPLC, 0.1M phosphate buffer pH 4.0, 80° C.); assay type: physicochemical; conditions: general statement
# Method: Each of compounds A and B, APM and L-aspartyl-DL-aminomalonic acid methyl fenchyl ester as disclosed in JP-A-49-30566, which will be abbreviated as "AMF" hereinafter, was dissolved in a 0.1M phosphate buffer solution (pH 4.0) at a concentration of 0.2%. The obtained solution was maintained at 80° C. and the percent remaining was monitored by high performance liquid chromatography with a lapse of time to thereby compare the stabilities of these solutions with each other.
# [6] = sweetness characteristics of diluted aqueous solution
# [7] = solubility in water; assay type: physicochemical
# [8] = degree of sweetness of L-aspartyl fenchyl amino alcohols by absolute configuration at (a) and (b); conditions: for Degree of sweetness: R1 methyl, R2 fenchyl, absolute configuration (a),(b)
# Method: Subsequent studies by the inventors have disclosed that the sweetness essentially depends on the absolute configuration at the (a) and (b) positions in the following formula (i). For example, compounds of the following general formula: [drawing 1]
# wherein R1 is methyl group while R2 is fenchyl group:
# The absolute configurations at the (a) and (b) positions are determined by resolving amino alcohol derivatives with tartaric acid to thereby give p-bromobenzoic acid amide derivatives of the following formula (ii) and then analyzing the crystal structures thereof with X-rays: [drawing 2]
# [9] = taste intensity threshold value by a limit method, panel of five skilled flavorists; conditions: for Taste intensity threshold value: dissolved in water, limit method, five skilled flavorists; for Degree of sweetness: sucrose = 1, from Table 1
# Method: Each of (2R,3R)-3-N-(L-aspartyl)amino-1-2-butanol (XVI') obtained in Example 2, 2-8), which will be referred to as "compound A" hereinafter, the (2R,3R)-3-N-(L-aspartyl)amino-1-2-butanol (XVII) obtained in Example 1, 1-15), which will be referred to as "compound B" hereinafter, APM and sucrose was dissolved in water. The threshold value of each compound was determined by a limit method by a panel consisting of five skilled flavorists.
compound,measurement,setting,value
CC(NC(=O)[C@@H](N)CC(=O)O)C(O)C[C@@H]1C[C@@H]2CC[C@@]1(C)C2 (stereo partly shown),Average score,[1],5.1
same,Degree of sweetness based on sucrose,[2],800 time
CC(NC(=O)[C@@H](N)CC(=O)O)C(O)C[C@@H]1[C@@H]2CC[C@@H](C2)[C@H]1C (stereo partly shown),Average score,[1],5.0
same,Degree of sweetness based on sucrose,[2],850 time
"COC(=O)C(NC(=O)[C@@H](N)CC(=O)O)C(=O)OC1C2(C)CCC(C2)C1(C)C (mixture of isomers) [AMF, L-aspartyl-DL-aminomalonic acid methyl fenchyl ester]",stability at 80° C. and at a pH of 4,[3],inferior to APM in stability at 80 °C and at a pH of 4
same,"degree of sweetness, in words",[4],highest degree of sweetness
"C[C@@H](NC(=O)[C@@H](N)CC(=O)O)[C@H](O)CC1CC2CCC1(C)C2 (stereo partly drawn) [(2R,3R)-3-N-(L-aspartyl)amino-1-(1-methyl-2-norbornyl)-2-butanol]",heat stability,[5],good in heat stability
same,stability in acidic aqueous solutions,[5],excellent in stability in acidic aqueous solutions
same,"disagreeable tastes (bitter taste, bad taste, unpleasant aftertaste)",[6],almost no disagreeable tastes
same,sweetness characteristics,[6],closely similar to those of sucrose
same,solubility in water,[7],highly soluble in water
"CC1C2CCC(C2)C1C[C@@H](O)[C@@H](C)NC(=O)[C@@H](N)CC(=O)O (stereo partly drawn) [(2R,3R)-3-N-(L-aspartyl)amino-1-(3-methyl-2-norbornyl)-2-butanol]",heat stability,[5],good in heat stability
same,stability in acidic aqueous solutions,[5],excellent in stability in acidic aqueous solutions
same,"disagreeable tastes (bitter taste, bad taste, unpleasant aftertaste)",[6],almost no disagreeable tastes
same,sweetness characteristics,[6],closely similar to those of sucrose
same,solubility in water,[7],highly soluble in water
"C[C@@H]1[C@H]2CC[C@H](C2)[C@H]1C[C@H](O)[C@H](C)NC(=O)[C@@H](N)CC(=O)O [(2S, 3S)-3-N-(L-aspartyl)amino-1-2-butanol]","sweetness, in words",[2],scarcely any sweetness
same,Degree of sweetness based on sucrose,[2],0 time
"C[C@@H](NC(=O)[C@@H](N)CC(=O)O)[C@H](O)CC1C2(C)CCC(C2)C1(C)C (stereo partly drawn) [(R,R)]","degree of sweetness, in words",[8],highest degree of sweetness
same,Degree of sweetness,[8],"12,500"
"C[C@@H](NC(=O)[C@@H](N)CC(=O)O)[C@@H](O)CC1C2(C)CCC(C2)C1(C)C (stereo partly drawn) [(R,S)]","degree of sweetness, in words",[8],scarcely any sweetness
same,Degree of sweetness,[8],0
"C[C@H](NC(=O)[C@@H](N)CC(=O)O)[C@H](O)CC1C2(C)CCC(C2)C1(C)C (stereo partly drawn) [(S,R)]","degree of sweetness, in words",[8],scarcely any sweetness
same,Degree of sweetness,[8],0
"C[C@H](NC(=O)[C@@H](N)CC(=O)O)[C@@H](O)CC1C2(C)CCC(C2)C1(C)C (stereo partly drawn) [(S,S)]","degree of sweetness, in words",[8],scarcely any sweetness
same,Degree of sweetness,[8],0
"COC(=O)[C@H](Cc1ccccc1)NC(=O)[C@@H](N)CC(=O)O [APM, L-aspartyl-L-phenylalanine methyl ester, reference compound] (H-Asp-Phe-OMe)",Average score,[1],5.8
same,Taste intensity threshold value,[9],0.004%
same,Degree of sweetness,[9],150 time
same,Degree of sweetness based on sucrose,[2],250 time
"CC(NC(=O)[C@@H](N)CC(=O)O)C(O)C[C@@H]1C(C)(C)[C@@H]2CC[C@@]1(C)C2 (stereo partly drawn) [C, 3-N-(L-aspartyl)-amino-1-d-α-fenchyl-2-butanol]",Average score,[1],4.1
same,Degree of sweetness,[8],"1,800"
same,Degree of sweetness based on sucrose,[2],"1,800 time"
"C[C@@H]1[C@H]2CC[C@H](C2)[C@H]1C[C@@H](O)[C@@H](C)NC(=O)[C@@H](N)CC(=O)O [Compound A, (2R,3R)-3-N-(L-aspartyl)amino-1-2-butanol]",Average score,[1],6.2
same,Taste intensity threshold value,[9],0.00024%
same,Degree of sweetness,[9],"2,500 time"
same,Degree of sweetness based on sucrose,[2],"2,500 time"
"C[C@@H](NC(=O)[C@@H](N)CC(=O)O)[C@H](O)C[C@@H]1C[C@@H]2CC[C@@]1(C)C2 [Compound B, (2R,3R)-3-N-(L-aspartyl)amino-1-2-butanol]",Average score,[1],6.3
same,Taste intensity threshold value,[9],0.00018%
same,Degree of sweetness,[9],"3,300 time"
same,Degree of sweetness based on sucrose,[2],"3,300 time"
"OC[C@H]1O[C@@](CO)(O[C@H]2O[C@H](CO)[C@@H](O)[C@H](O)[C@H]2O)[C@@H](O)[C@@H]1O [Sucrose, sucrose, reference compound]",Taste intensity threshold value,[9],0.6%
same,Degree of sweetness,[9],1 time
